{
  "source": "patent US9834807B2",
  "about": "“Compositions for the detection of intracellular bacterial targets and other intracellular micororganism targets” (Becton, Dickinson and Company, priority 2008, dated 2017)",
  "key": {"[1]": {"tested_on": "intracellular beta-lactamase", "assay": "nitrocefin hydrolysis by bacterial cell suspension on Phoenix panel", "type": "cell-based, Klebsiella pneumoniae", "set-up": "unit not given here", "conditions": "maximum hydrolysis rate within 10 hrs; for NCF activity: no lysis reagent", "method": "(§1) Panel production. Stock solutions with nitrocefin, trehalose, and/or reagents used to lyse the bacterial cells in pH6 MES buffer were prepared and dispensed into wells on the bottom part of a Phoenix™ panel (BD, USA), with one stock solution in one well. Panels were then dried in an oven for approximately 30 min at approximately 70° C. The top part of Phoenix panel was then attached to the bottom part forming a panel system ready for inoculation. The concentrations of reagents after rehydration following Phoenix panel inoculation were 3 mg/ml lysozyme, 1 mM EDTA, and 1% trehalose in 0.1M pH6 MES buffer.\n(§2) Inoculation and lysis testing. Representative strains of bacteria, such as E. coli and Klebsiella pneumoniae, were each streaked on a Trypticase™ Soy Agar with 5% Sheep Blood agar plate (BD, USA) and the plates were incubated at 35° C. for 18 hours. Afterwards, colonies from pure culture on each plate were inoculated into BD Phoenix ID broth and adjusted to a desired turbidity of approximately 0.5 MacFarland. The bacterial cell suspension was then poured into the ID side of the Phoenix panels that were specifically made for cell lysis testing. Once inoculated, the panel was loaded into Phoenix instrument, where nitrocefin hydrolysis rate was monitored by colorimetric signals changes every 20 minutes for 16 hours.\n(§3) Microorganism. The presence of beta-lactamase in the strains tested herein was previously characterized by isoelectric focusing (IEF) gel electrophoresis, PCR testing, or MIC assays, which were performed by microbroth dilution method according to the CLSI (Clinical and Laboratory Standards Institute) standard."}, "[2]": {"tested_on": "intracellular beta-lactamase", "assay": "nitrocefin hydrolysis by bacterial cell suspension on Phoenix panel", "type": "cell-based, E. coli", "set-up": "unit not given here", "conditions": "maximum hydrolysis rate within 10 hrs; for NCF activity: no lysis reagent", "method": "as §1, §2, §3"}, "[3]": {"conditions": "Sample 9, Klebsiella pneumoniae, beta-lactamase +"}, "[4]": {"conditions": "Sample 10, Klebsiella pneumoniae, beta-lactamase +"}, "[5]": {"conditions": "Sample 11, Klebsiella pneumoniae, beta-lactamase +"}, "[6]": {"conditions": "Sample 12, Klebsiella pneumoniae, beta-lactamase +"}, "[7]": {"conditions": "Sample 13, Klebsiella pneumoniae, beta-lactamase +"}, "[8]": {"conditions": "Sample 14, Klebsiella pneumoniae, beta-lactamase +"}, "[9]": {"conditions": "Sample 15, Klebsiella pneumoniae, beta-lactamase +"}, "[10]": {"conditions": "Sample 16, Klebsiella pneumoniae, beta-lactamase −"}, "[11]": {"conditions": "Sample 1, E. coli, beta-lactamase +"}, "[12]": {"conditions": "Sample 2, E. coli, beta-lactamase +"}, "[13]": {"conditions": "Sample 3, E. coli, beta-lactamase +"}, "[14]": {"conditions": "Sample 4, E. coli, beta-lactamase +"}, "[15]": {"conditions": "Sample 5, E. coli, beta-lactamase +"}, "[16]": {"conditions": "Sample 6, E. coli, beta-lactamase +"}, "[17]": {"conditions": "Sample 7, E. coli, beta-lactamase +"}, "[18]": {"conditions": "Sample 8, E. coli, beta-lactamase −"}},
  "data": [
    {"smiles": "O=C(Cc1cccs1)N[C@@H]1C(=O)N2C(C(=O)O)=C(/C=C/c3ccc([N+](=O)[O-])cc3[N+](=O)[O-])CS[C@H]12", "note": "[NCF, 3-[2,4-dinitrostyryl]-7-(2-thienylacetamido]3-cephem-4-carboxylic acid]", "values": [
      {"measurement": "NCF activity", "setting": "[1]; [3]", "value": 1.3},
      {"measurement": "NCF activity with lysis reagent", "setting": "[1]; [3]", "value": 4.6},
      {"measurement": "NCF activity", "setting": "[1]; [4]", "value": 3.3},
      {"measurement": "NCF activity with lysis reagent", "setting": "[1]; [4]", "value": 6.3},
      {"measurement": "NCF activity", "setting": "[1]; [5]", "value": 3.9},
      {"measurement": "NCF activity with lysis reagent", "setting": "[1]; [5]", "value": 6.1},
      {"measurement": "NCF activity", "setting": "[1]; [6]", "value": 2.6},
      {"measurement": "NCF activity with lysis reagent", "setting": "[1]; [6]", "value": 5.6},
      {"measurement": "NCF activity", "setting": "[1]; [7]", "value": 6.7},
      {"measurement": "NCF activity with lysis reagent", "setting": "[1]; [7]", "value": 6.8},
      {"measurement": "NCF activity", "setting": "[1]; [8]", "value": 7.5},
      {"measurement": "NCF activity with lysis reagent", "setting": "[1]; [8]", "value": 8.8},
      {"measurement": "NCF activity", "setting": "[1]; [9]", "value": 9.1},
      {"measurement": "NCF activity with lysis reagent", "setting": "[1]; [9]", "value": 9.5},
      {"measurement": "NCF activity", "setting": "[1]; [10]", "value": 1.2},
      {"measurement": "NCF activity with lysis reagent", "setting": "[1]; [10]", "value": 1.8},
      {"measurement": "NCF activity", "setting": "[2]; [11]", "value": 1.9},
      {"measurement": "NCF activity with lysis reagent", "setting": "[2]; [11]", "value": 7.2},
      {"measurement": "NCF activity", "setting": "[2]; [12]", "value": 2.1},
      {"measurement": "NCF activity with lysis reagent", "setting": "[2]; [12]", "value": 7.7},
      {"measurement": "NCF activity", "setting": "[2]; [13]", "value": 2.3},
      {"measurement": "NCF activity with lysis reagent", "setting": "[2]; [13]", "value": 8.1},
      {"measurement": "NCF activity", "setting": "[2]; [14]", "value": 1.9},
      {"measurement": "NCF activity with lysis reagent", "setting": "[2]; [14]", "value": 6.8},
      {"measurement": "NCF activity", "setting": "[2]; [15]", "value": 8.2},
      {"measurement": "NCF activity with lysis reagent", "setting": "[2]; [15]", "value": 9.1},
      {"measurement": "NCF activity", "setting": "[2]; [16]", "value": 7.2},
      {"measurement": "NCF activity with lysis reagent", "setting": "[2]; [16]", "value": 8.1},
      {"measurement": "NCF activity", "setting": "[2]; [17]", "value": 6.8},
      {"measurement": "NCF activity with lysis reagent", "setting": "[2]; [17]", "value": 8.4},
      {"measurement": "NCF activity", "setting": "[2]; [18]", "value": 1.7},
      {"measurement": "NCF activity with lysis reagent", "setting": "[2]; [18]", "value": 1.8}
    ]}
  ]
}
